# In BindingDB's records for doi:10.1021/acs.jmedchem.1c00049 (Genentech, 2021):
# What was measured:
# [1] = Displacement of [3H]GX-545 Nav1.7 (unknown origin) expressed in HEK cells by liquid scintillation counting based radioligand competition assay
# [2] = Inhibition of human Nav1.7 expressed in HEK293 cells incubated for 1 hr in presence of veratridine by sodium influx assay
IC50 [1] [nM],IC50 [2] [nM],SMILES
4,38,O=C(NS(=O)(=O)C1COC1)c1cc(C2CC2)c(OCC23CC4CC(CC(C4)C2)C3)cc1F
3.6,66,CS(=O)(=O)NC(=O)c1cc(C2CC2)c(OCC2CCN(C(c3ccccc3)c3ccccc3)CC2)cc1F
140,3200,CS(=O)(=O)NC(=O)c1cc(C2CC2)c(OCC2CCN(Cc3ccccc3)CC2)cc1F
1.1,14,"O=C(NS(=O)(=O)C1CC1)c1cc(C2CC2)c(OCC23CC4CC(CC(C4)C2)C3)cc1F [US8952169, 148]"
2.2,160,"O=C(NS(=O)(=O)N1CCCC1)c1cc(C2CC2)c(OCC23CC4CC(CC(C4)C2)C3)cc1F [US8952169, 154]"
2.3,–,"O=C(NS(=O)(=O)N1CCOCC1)c1cc(C2CC2)c(OCC23CC4CC(CC(C4)C2)C3)cc1F [US8952169, 155]"
5.5,23,"CS(=O)(=O)NC(=O)c1cc(C2CC2)c(OCC2CN(C(c3ccccc3)c3ccccc3)C2)cc1F [US8952169, 440]"
22,42,"CS(=O)(=O)NC(=O)c1cc(C2CC2)c(OCC2CCN(Cc3ccc(Cl)cc3)CC2)cc1F [US9546164, 104]"
7.7,31,"CS(=O)(=O)NC(=O)c1cc(C2CC2)c(OCC2CCN(Cc3ccc(OC(F)(F)F)cc3)CC2)cc1F [US9546164, 135]"
2.4,120,"CS(=O)(=O)NC(=O)c1cc(C2CC2)c(OCC2CCN(Cc3cc(Cl)cc(Cl)c3)CC2)cc1F [US9546164, 139]"
0.8,26,"CC(C)(c1cc(Cl)cc(Cl)c1)N1CCC(COc2cc(F)c(C(=O)NS(C)(=O)=O)cc2C2CC2)CC1 [US9546164, 209]"
9.8,34,"CS(=O)(=O)NC(=O)c1cc(C2CC2)c(OCC2CCN(C(=O)c3cc(Cl)cc(Cl)c3)CC2)cc1F [US9546164, 253]"
